# Assay results from publication PMC5218480 (PLoS ONE, 2017).
# System: MV-4-11 cells
# Assay: Gene expression microarray analysis (Affymetrix PrimeView) and GSEA
# Format: cell-based, human
# Design: RFU PODN (11730768_x_at) / Fold change /veh PODN (11730768_x_at) / RFU LINC00158 (11744669_a_at) / Fold change /veh LINC00158 (11744669_a_at) / RFU DUSP10 (11751237_a_at) / Fold change /veh DUSP10 (11751237_a_at) / RFU ID3 (11757404_x_at) / Fold change /veh ID3 (11757404_x_at) / RFU PLEKHG5 (11737974_s_at) / Fold change /veh PLEKHG5 (11737974_s_at) / RFU LRRC4B (11730491_at) / Fold change /veh LRRC4B (11730491_at) / RFU GIMAP4 (11747438_a_at) / Fold change /veh GIMAP4 (11747438_a_at) / RFU KRT8 (11758183_x_at) / Fold change /veh KRT8 (11758183_x_at) / RFU CNN1 (11734310_a_at) / Fold change /veh CNN1 (11734310_a_at) / RFU VPS37D (11726825_at) / Fold change /veh VPS37D (11726825_at) / RFU C10orf10 (11716522_x_at) / Fold change /veh C10orf10 (11716522_x_at) / RFU KIR2DL2 /// KIR2DL4 /// KIR2DL5A /// KIR2DL5B /// KIR2DS1 /// KIR2DS2 /// KIR2DS3 /// KIR2DS4 /// KIR3DL3 /// KIR3DL3 /// KIR3DS1 (11738374_at) / Fold change /veh KIR2DL2 /// KIR2DL4 /// KIR2DL5A /// KIR2DL5B /// KIR2DS1 /// KIR2DS2 /// KIR2DS3 /// KIR2DS4 /// KIR3DL3 /// KIR3DL3 /// KIR3DS1 (11738374_at) / RFU C1QL1 (11718748_at) / Fold change /veh C1QL1 (11718748_at) / RFU TMPRSS4 (11747572_a_at) / Fold change /veh TMPRSS4 (11747572_a_at) / RFU HAMP (11756126_x_at) / Fold change /veh HAMP (11756126_x_at) / RFU RNFT2 (11725882_a_at) / Fold change /veh RNFT2 (11725882_a_at) / RFU NR4A2 (11747474_a_at) / Fold change /veh NR4A2 (11747474_a_at) / RFU ABCC12 (11746883_a_at) / Fold change /veh ABCC12 (11746883_a_at) / RFU TMEM136 (11760407_x_at) / Fold change /veh TMEM136 (11760407_x_at) / RFU CLDN22 /// WWC2 (11732394_at) / Fold change /veh CLDN22 /// WWC2 (11732394_at) / RFU HLA-DPB1 (11760878_x_at) / Fold change /veh HLA-DPB1 (11760878_x_at) / RFU SPINT1 (11716480_a_at) / Fold change /veh SPINT1 (11716480_a_at) / RFU GAP43 (11754022_s_at) / Fold change /veh GAP43 (11754022_s_at) / RFU A4GNT (11735810_at) / Fold change /veh A4GNT (11735810_at) / RFU PRB3 (11715151_x_at) / Fold change /veh PRB3 (11715151_x_at) / RFU TUBB4B (11761932_at) / Fold change /veh TUBB4B (11761932_at) / RFU CAPN14 (11732068_a_at) / Fold change /veh CAPN14 (11732068_a_at) / RFU TMCC2 (11721928_a_at) / Fold change /veh TMCC2 (11721928_a_at) / RFU IRGQ (11745062_a_at) / Fold change /veh IRGQ (11745062_a_at) / RFU FAM174B (11720279_a_at) / Fold change /veh FAM174B (11720279_a_at) / RFU TMPRSS4 (11748680_a_at) / Fold change /veh TMPRSS4 (11748680_a_at) / RFU FAM212B (11763350_a_at) / Fold change /veh FAM212B (11763350_a_at) / RFU PLEKHG5 (11743358_a_at) / Fold change /veh PLEKHG5 (11743358_a_at) / RFU ZSCAN30 (11745921_a_at) / Fold change /veh ZSCAN30 (11745921_a_at) / RFU CMKLR1 (11741424_a_at) / Fold change /veh CMKLR1 (11741424_a_at) / RFU LOC101060620 /// MAPK8IP1 (11723275_at) / Fold change /veh LOC101060620 /// MAPK8IP1 (11723275_at) / RFU SPTSSB (11747773_x_at) / Fold change /veh SPTSSB (11747773_x_at) / RFU PRSS12 (11739890_at) / Fold change /veh PRSS12 (11739890_at) / RFU BIN1 (11741810_x_at) / Fold change /veh BIN1 (11741810_x_at) / RFU WNT11 (11732464_a_at) / Fold change /veh WNT11 (11732464_a_at) / RFU C10orf10 (11716521_a_at) / Fold change /veh C10orf10 (11716521_a_at) / RFU C5orf56 (11738089_at) / Fold change /veh C5orf56 (11738089_at) / RFU CYB561 (11721691_x_at) / Fold change /veh CYB561 (11721691_x_at) / RFU ANKRD19P (11752326_a_at) / Fold change /veh ANKRD19P (11752326_a_at) / RFU OR2T12 /// OR2T33 /// OR2T8 (11738714_s_at) / Fold change /veh OR2T12 /// OR2T33 /// OR2T8 (11738714_s_at) / RFU VCAN (11748164_a_at) / Fold change /veh VCAN (11748164_a_at) / RFU JSRP1 (11732532_at) / Fold change /veh JSRP1 (11732532_at) / RFU KRTAP10-11 (11738290_x_at) / Fold change /veh KRTAP10-11 (11738290_x_at) / RFU MYO3A (11730013_a_at) / Fold change /veh MYO3A (11730013_a_at) / RFU EBF3 (11725865_a_at) / Fold change /veh EBF3 (11725865_a_at) / RFU CAMK2N1 (11719241_x_at) / Fold change /veh CAMK2N1 (11719241_x_at) / RFU C5orf56 (11738088_a_at) / Fold change /veh C5orf56 (11738088_a_at) / RFU OLFML3 (11715873_a_at) / Fold change /veh OLFML3 (11715873_a_at) / RFU LOC100653217 /// NTM (11731650_a_at) / Fold change /veh LOC100653217 /// NTM (11731650_a_at) / RFU MAPK11 (11762145_a_at) / Fold change /veh MAPK11 (11762145_a_at) / RFU FIZ1 (11724087_x_at) / Fold change /veh FIZ1 (11724087_x_at) / RFU OASL (11726364_x_at) / Fold change /veh OASL (11726364_x_at) / RFU SOX15 (11748057_x_at) / Fold change /veh SOX15 (11748057_x_at) / RFU CD79A (11719716_a_at) / Fold change /veh CD79A (11719716_a_at) / RFU HIST1H1D (11736915_at) / Fold change /veh HIST1H1D (11736915_at) / RFU CASKIN2 (11723855_a_at) / Fold change /veh CASKIN2 (11723855_a_at) / RFU LOC730098 (11760151_x_at) / Fold change /veh LOC730098 (11760151_x_at) / RFU OR4N2 (11742367_at) / Fold change /veh OR4N2 (11742367_at) / RFU PRRT2 (11749266_a_at) / Fold change /veh PRRT2 (11749266_a_at) / RFU SNX32 (11753110_a_at) / Fold change /veh SNX32 (11753110_a_at) / RFU CDHR5 (11726645_a_at) / Fold change /veh CDHR5 (11726645_a_at) / RFU RCAN1 (11760418_a_at) / Fold change /veh RCAN1 (11760418_a_at) / RFU FAM167A (11723789_a_at) / Fold change /veh FAM167A (11723789_a_at) / RFU FAM26E (11764081_at) / Fold change /veh FAM26E (11764081_at) / RFU ISYNA1 (11749810_s_at) / Fold change /veh ISYNA1 (11749810_s_at) / RFU ACY1 (11761880_at) / Fold change /veh ACY1 (11761880_at) / RFU 11764098_at / Fold change /veh 11764098_at / RFU SAMD14 (11745864_x_at) / Fold change /veh SAMD14 (11745864_x_at) / RFU NPB (11741838_a_at) / Fold change /veh NPB (11741838_a_at) / RFU TMPRSS6 (11731388_a_at) / Fold change /veh TMPRSS6 (11731388_a_at) / RFU KRTAP10-2 (11738614_at) / Fold change /veh KRTAP10-2 (11738614_at) / RFU ARHGAP8 /// PRR5-ARHGAP8 (11727945_x_at) / Fold change /veh ARHGAP8 /// PRR5-ARHGAP8 (11727945_x_at) / RFU KRTAP5-7 /// NADSYN1 (11734609_at) / Fold change /veh KRTAP5-7 /// NADSYN1 (11734609_at) / RFU RASL12 (11751679_a_at) / Fold change /veh RASL12 (11751679_a_at) / RFU CDKN2B (11736163_a_at) / Fold change /veh CDKN2B (11736163_a_at) / RFU PRF1 (11729649_at) / Fold change /veh PRF1 (11729649_at) / RFU, ZNF638 /// ZNF638-IT1 / Fold change vs veh, ZNF638 /// ZNF638-IT1 / RFU, PANK3 / Fold change vs veh, PANK3 / RFU, SH3YL1 / Fold change vs veh, SH3YL1 / RFU, ZEB2 / Fold change vs veh, ZEB2 / RFU, NRIP1 / Fold change vs veh, NRIP1 / RFU, PTTG1IP / Fold change vs veh, PTTG1IP / RFU, CAPN2 / Fold change vs veh, CAPN2 / RFU, MED14 / Fold change vs veh, MED14 / RFU, SNORA58 / Fold change vs veh, SNORA58 / RFU, C1orf63 / Fold change vs veh, C1orf63 / RFU, LRRFIP1 / Fold change vs veh, LRRFIP1 / RFU, NDUFAF7 / Fold change vs veh, NDUFAF7 / RFU, SLC12A2 / Fold change vs veh, SLC12A2 / RFU, IBTK / Fold change vs veh, IBTK / RFU, ESF1 / Fold change vs veh, ESF1 / Fold change vs veh, TMEM50B / RFU, TAOK1 / Fold change vs veh, TAOK1 / RFU, ACBD3 / Fold change vs veh, ACBD3 / RFU, TMA16 / Fold change vs veh, TMA16 / RFU, RWDD3 / Fold change vs veh, RWDD3 / RFU, BCAT1 / Fold change vs veh, BCAT1 / RFU, EDEM3 / Fold change vs veh, EDEM3 / RFU, TMEM33 / Fold change vs veh, TMEM33 / RFU, WDR75 / Fold change vs veh, WDR75 / RFU, AHCTF1 / Fold change vs veh, AHCTF1 / RFU, TFRC / Fold change vs veh, TFRC / RFU, ZDHHC17 / Fold change vs veh, ZDHHC17 / RFU, NOM1 / Fold change vs veh, NOM1 / RFU, ARL8B / Fold change vs veh, ARL8B / RFU, ZBTB11 / Fold change vs veh, ZBTB11 / RFU, TAMM41 / Fold change vs veh, TAMM41 / RFU, KIAA1704 /// LOC100996395 / Fold change vs veh, KIAA1704 /// LOC100996395 / RFU, ING1 / Fold change vs veh, ING1 / RFU, TRMT61B / Fold change vs veh, TRMT61B / RFU, FUBP3 / Fold change vs veh, FUBP3 / RFU, TP53 / Fold change vs veh, TP53 / RFU, TNKS2 / Fold change vs veh, TNKS2 / RFU, ZFP14 / Fold change vs veh, ZFP14 / RFU, ACTR2 / Fold change vs veh, ACTR2 / RFU, PPP3R1 / Fold change vs veh, PPP3R1 / RFU, PIK3R1 / Fold change vs veh, PIK3R1 / RFU, HNRNPA1 / Fold change vs veh, HNRNPA1 / RFU, RNF170 / Fold change vs veh, RNF170 / RFU, ZNF28 / Fold change vs veh, ZNF28 / RFU, RNGTT / Fold change vs veh, RNGTT / RFU, OGT / Fold change vs veh, OGT / RFU, BRD1 / Fold change vs veh, BRD1 / RFU, MARS / Fold change vs veh, MARS / RFU, ZNF655 / Fold change vs veh, ZNF655 / RFU, FAHD1 / Fold change vs veh, FAHD1 / RFU, BDP1 / Fold change vs veh, BDP1 / RFU, LRRCC1 / Fold change vs veh, LRRCC1 / RFU, ARID1A / Fold change vs veh, ARID1A / RFU, ZNF146 / Fold change vs veh, ZNF146 / RFU, ZNF330 / Fold change vs veh, ZNF330 / RFU, GPN3 / Fold change vs veh, GPN3 / RFU, C9orf123 / Fold change vs veh, C9orf123 / RFU, N4BP2L2 / Fold change vs veh, N4BP2L2 / RFU, ARFIP1 / Fold change vs veh, ARFIP1 / RFU, FAM179B / Fold change vs veh, FAM179B / RFU, BCL10 / Fold change vs veh, BCL10 / RFU, UHRF1BP1L / Fold change vs veh, UHRF1BP1L / RFU, BET1 / Fold change vs veh, BET1 / RFU, CNOT2 / Fold change vs veh, CNOT2 / RFU, ZNF268 / Fold change vs veh, ZNF268 / Fold change vs veh, ZNF507 / RFU, DGCR2 / Fold change vs veh, DGCR2 / RFU, WDSUB1 / Fold change vs veh, WDSUB1 / Fold change vs veh, HSP90B1 /// MIR3652 / RFU, ADSS / Fold change vs veh, ADSS / RFU, GK / Fold change vs veh, GK / RFU, ZNF148 / Fold change vs veh, ZNF148 / RFU, TAF9 / Fold change vs veh, TAF9 / RFU, SLC1A5 / Fold change vs veh, SLC1A5 / RFU, SLMO2 / Fold change vs veh, SLMO2 / RFU, ABCC4 / Fold change vs veh, ABCC4 / RFU, LOC101060439 /// RAP1B / Fold change vs veh, LOC101060439 /// RAP1B / RFU, RFX7 / Fold change vs veh, RFX7 / RFU, GTPBP10 / Fold change vs veh, GTPBP10 / RFU, CNEP1R1 / Fold change vs veh, CNEP1R1 / RFU, BIVM-ERCC5 /// ERCC5 / Fold change vs veh, BIVM-ERCC5 /// ERCC5 / RFU, ILF3 / Fold change vs veh, ILF3 / RFU 11762660_at / Fold change /veh 11762660_at / RFU VCAN (11757783_s_at) / Fold change /veh VCAN (11757783_s_at) / RFU DDX43 (11728927_at) / Fold change /veh DDX43 (11728927_at) / RFU KRT8 (11758188_x_at) / Fold change /veh KRT8 (11758188_x_at) / RFU NKD1 (11759106_at) / Fold change /veh NKD1 (11759106_at) / RFU SRD5A1 (11742802_a_at) / Fold change /veh SRD5A1 (11742802_a_at) / RFU TPSAB1 /// TPSB2 (11721975_s_at) / Fold change /veh TPSAB1 /// TPSB2 (11721975_s_at) / RFU GSTM3 (11746129_a_at) / Fold change /veh GSTM3 (11746129_a_at) / RFU IL23R (11737362_x_at) / Fold change /veh IL23R (11737362_x_at) / RFU TMEM51 (11727254_a_at) / Fold change /veh TMEM51 (11727254_a_at) / RFU PIWIL2 (11732686_x_at) / Fold change /veh PIWIL2 (11732686_x_at) / RFU ORM1 (11744905_x_at) / Fold change /veh ORM1 (11744905_x_at) / RFU CCDC152 (11743942_at) / Fold change /veh CCDC152 (11743942_at) / RFU ECM1 (11717891_a_at) / Fold change /veh ECM1 (11717891_a_at) / RFU IL23R (11748794_a_at) / Fold change /veh IL23R (11748794_a_at) / RFU TNFAIP8L3 (11732012_x_at) / Fold change /veh TNFAIP8L3 (11732012_x_at) / RFU MBOAT4 (11741988_at) / Fold change /veh MBOAT4 (11741988_at) / RFU 11764193_at / Fold change /veh 11764193_at / RFU TMEM53 (11763286_at) / Fold change /veh TMEM53 (11763286_at) / RFU MAGEB2 (11727129_at) / Fold change /veh MAGEB2 (11727129_at) / RFU TMEM200A (11744735_a_at) / Fold change /veh TMEM200A (11744735_a_at) / RFU CCDC152 (11751479_a_at) / Fold change /veh CCDC152 (11751479_a_at) / RFU FAM211A (11726209_a_at) / Fold change /veh FAM211A (11726209_a_at) / RFU RGS16 (11746705_a_at) / Fold change /veh RGS16 (11746705_a_at) / RFU VCAN (11755009_s_at) / Fold change /veh VCAN (11755009_s_at) / RFU RHOB (11743442_s_at) / Fold change /veh RHOB (11743442_s_at) / RFU RGS16 (11720943_a_at) / Fold change /veh RGS16 (11720943_a_at) / RFU RGS16 (11720944_at) / Fold change /veh RGS16 (11720944_at) / RFU, VPS4B / Fold change vs veh, VPS4B / RFU, CREB1 / Fold change vs veh, CREB1 / RFU, DNAJC13 / Fold change vs veh, DNAJC13 / RFU, GNAQ / Fold change vs veh, GNAQ / RFU, CDK5R1 / Fold change vs veh, CDK5R1 / RFU, ZRANB3 / Fold change vs veh, ZRANB3 / RFU, CUL4A / Fold change vs veh, CUL4A / RFU, CCNY / Fold change vs veh, CCNY / RFU, UFL1 / Fold change vs veh, UFL1 / RFU, COG3 / Fold change vs veh, COG3 / RFU, DIAPH2 / Fold change vs veh, DIAPH2 / RFU, SKA2 / Fold change vs veh, SKA2 / RFU, AFF3 / Fold change vs veh, AFF3 / RFU, LMF1 / Fold change vs veh, LMF1 / RFU, IPO11 / Fold change vs veh, IPO11 / RFU, DFFB / Fold change vs veh, DFFB / RFU, FOXP1 / Fold change vs veh, FOXP1 / RFU, CARD8 / Fold change vs veh, CARD8 / RFU, STRN3 / Fold change vs veh, STRN3 / RFU, ADK / Fold change vs veh, ADK / RFU, RASSF2 / Fold change vs veh, RASSF2 / RFU, WIPF1 / Fold change vs veh, WIPF1 / RFU, LARP1B / Fold change vs veh, LARP1B / RFU, RASA1 / Fold change vs veh, RASA1 / RFU, RB1 / Fold change vs veh, RB1 / RFU, PPFIA1 / Fold change vs veh, PPFIA1 / RFU, MAT2A / Fold change vs veh, MAT2A / RFU, CCT5 / Fold change vs veh, CCT5 / RFU, WDR92 / Fold change vs veh, WDR92 / RFU, CUX1 / Fold change vs veh, CUX1 / RFU, TTC7A / Fold change vs veh, TTC7A / RFU, TMEM135 / Fold change vs veh, TMEM135 / RFU, DEPTOR / Fold change vs veh, DEPTOR / RFU, CPM / Fold change vs veh, CPM / RFU, DNAJB6 / Fold change vs veh, DNAJB6 / RFU, CACNA2D3 / Fold change vs veh, CACNA2D3 / RFU, DTX4 / Fold change vs veh, DTX4 / RFU, TFCP2 / Fold change vs veh, TFCP2 / RFU, GMCL1 /// GMCL1P1 / Fold change vs veh, GMCL1 /// GMCL1P1 / RFU, AEBP2 / Fold change vs veh, AEBP2 / RFU, SNHG1 /// SNORD22 /// SNORD25 /// SNORD26 /// SNORD27 /// SNORD28 /// SNORD29 /// SNORD31 / Fold change vs veh, SNHG1 /// SNORD22 /// SNORD25 /// SNORD26 /// SNORD27 /// SNORD28 /// SNORD29 /// SNORD31 / Fold change (Aza/veh), C12orf56 (ProbeSet 11735607_a_at) / Fold change (ACY-1035/veh), C12orf56 (ProbeSet 11735607_a_at) / Fold change (Aza/veh), FGFR1OP (ProbeSet 11751329_s_at) / Fold change (ACY-1035/veh), FGFR1OP (ProbeSet 11751329_s_at) / Fold change (Aza/veh), VPS36 (ProbeSet 11739960_a_at) / Fold change (ACY-1035/veh), VPS36 (ProbeSet 11739960_a_at) / RFU SYPL1 (11715823_x_at) / Fold change /veh SYPL1 (11715823_x_at) / RFU IGFBP7 (11715501_s_at) / Fold change /veh IGFBP7 (11715501_s_at) / RFU REEP3 (11722064_at) / Fold change /veh REEP3 (11722064_at) / RFU IGLL1 (11728026_x_at) / Fold change /veh IGLL1 (11728026_x_at): dose or concentration left out as unconfirmed
# Settings: ProbeSet 11745428_a_at; LIST D
structure (smiles),measurement,value
Nc1ncn([C@@H]2O[C@H](CO)[C@@H](O)[C@H]2O)c(=O)n1 [azacitidine],"Fold change vs veh, DFFB",0.78
